Molecules are shown by their SMILES.

One test addresses T1, Tyrosine-protein phosphatase non-receptor type 1 (Homo sapiens, UniProt P18031).
T1 sequence (P18031 whole entry): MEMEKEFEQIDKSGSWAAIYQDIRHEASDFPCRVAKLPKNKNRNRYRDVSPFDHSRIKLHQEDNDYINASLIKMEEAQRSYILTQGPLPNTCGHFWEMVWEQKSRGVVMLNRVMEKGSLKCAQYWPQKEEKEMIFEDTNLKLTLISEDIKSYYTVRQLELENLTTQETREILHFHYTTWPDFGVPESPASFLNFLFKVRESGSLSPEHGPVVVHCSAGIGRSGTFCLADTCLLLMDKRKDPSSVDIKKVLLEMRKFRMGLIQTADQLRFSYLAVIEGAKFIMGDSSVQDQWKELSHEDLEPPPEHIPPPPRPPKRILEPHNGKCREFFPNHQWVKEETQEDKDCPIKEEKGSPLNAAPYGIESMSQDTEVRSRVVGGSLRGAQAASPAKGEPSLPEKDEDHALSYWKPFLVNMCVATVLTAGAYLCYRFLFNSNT
Kind of test: Inhibitory activity against PTP1B as a model Protein tyrosine […] (PTP) using fluorescein diphosphate as substrate at Km concentration (20 uM) at th.
Take `O=P(O)(O)OC(F)(F)c1cccc(-c2ccccc2)c1`: half-maximal inhibition (IC50) was put at 15 µM.

The target of the next test is T1, Tyrosine-protein phosphatase non-receptor type 1. Kind of test: Inhibitory activity against protein tyrosine phosphatase 1B (PTP1B) using fluorescein diphosphate as substrate at Km concentration (20 uM).
Compound `O=C(O)C(F)(Oc1ccc2ccccc2c1)C(=O)O` returned a 50% inhibitory concentration (IC50) of 320 µM.

In turn, `O=C(O)C(F)(Oc1cccc(-c2ccccc2)c1)C(=O)O` came in with an IC50 of 250 µM.

Take `O=S(=O)(O)C(F)(F)c1cccc(-c2ccccc2)c1`: inhibition was half-maximal at 115 µM (IC50).

Consider `FC(F)(c1cccc(-c2ccccc2)c1)c1nnn[nH]1`, for which the IC50 was 195 µM.

The compound `O=C(O)C(F)(F)c1cccc(-c2ccccc2)c1` returned an IC50 of 435 µM.

In turn, `FC(F)(c1ccc2ccccc2c1)c1nnn[nH]1` displayed an IC50 of 230 µM.

Turning to `O=P(O)(O)OC(F)(F)c1ccc2ccccc2c1`, the half-maximal inhibitory concentration (IC50) was determined as 35 µM.

`O=C(O)C(F)(F)c1ccc2ccccc2c1` came in with an IC50 of 640 µM.

`O=S(=O)(O)C(F)(F)c1ccc2ccccc2c1` registered an IC50 of 175 µM.

The target in the next test is T2, Tyrosine-protein phosphatase non-receptor type 1 (Homo sapiens) (UniProt P18031).
T2 sequence (whole entry): T1 sequence (P18031 whole entry)
The test can be described thus: Inhibitory activity against protein tyrosine phosphatase 1B (PTP1B) at 500 uM conc. using fluorescein diphosphate as substrate at Km concentration (20 uM).
Regarding `O=C(O)Cc1cccc(-c2ccccc2)c1`, the inhibition came out at 10%.

The compound `O=S(=O)(O)Cc1ccc2ccccc2c1` yielded an inhibition of 5%.

`c1ccc2cc(Cc3nnn[nH]3)ccc2c1`: the inhibition is 12%.

The compound `O=C(O)Cc1ccc2ccccc2c1` registered an inhibition of 4%.

For the compound `O=P(O)(O)Cc1ccc2ccccc2c1`, the inhibition was 9%.

In turn, `O=P(O)(O)Cc1cccc(-c2ccccc2)c1` had an inhibition of 17%.

`O=S(=O)(O)Cc1cccc(-c2ccccc2)c1` returned an inhibition of 10%.

`c1ccc(-c2cccc(Cc3nnn[nH]3)c2)cc1` displayed an inhibition of 15%.

Another test deals with T1, Tyrosine-protein phosphatase non-receptor type 1. The test can be described thus: Binding affinity against Protein tyrosine phosphatase-1B (PTP1B).
Take `O=S(=O)(O)C(F)(F)c1cccc(-c2ccccc2)c1`: the Ki stood at 49 µM.

In turn, `FC(F)(c1cccc(-c2ccccc2)c1)c1nnn[nH]1` displayed a Ki of 98 µM.

The values are drawn from ChEMBL document CHEMBL1130679, “Novel phosphate mimetics for the design of non-peptidyl inhibitors of protein tyrosine phosphatases” (Bioorg Med Chem Lett, 1998).
